test system: NF-κB; test: NF-κB assay: THP1-NF-κB-LUC cells, LPS-stimulated secreted luciferase; assay type: cell-based; settings: THP1-NF-κB-LUC cells, LPS-stimulated; read-out: IC50 (NF-κB assay)
How it was run: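 THP1-NF-κB-LUC cells (25k/well) were pretreated with compounds for 2 h, then stimulated with LPS (10 ng/mL) for 18 h. Secreted luciferase was measured and normalized to vehicle, and IC50 was fitted from the concentration series.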

| Structure (SMILES) | IC50 [µM] |
| --- | --- |
| CCCS(=O)(=O)c1oc(-c2ccc(F)cc2)nc1S(=O)(=O)c1ccc(F)cc1 [BC18543] | < 0.1 |
| CCCCS(=O)(=O)c1oc(-c2ccc(F)cc2)nc1S(=O)(=O)c1ccc(Cl)cc1 [BC18544] | 0.1 to 1 |
| CSc1oc(-c2ccccc2)nc1S(=O)(=O)c1ccc(F)cc1 [BC18545] | 1 to 10 |
| CC(C)Sc1oc(-c2ccccc2)nc1S(=O)(=O)c1ccc(Cl)cc1 [BC18546] | 1 to 10 |
| CCSc1oc(-c2ccc(C)cc2)nc1S(=O)(=O)c1ccc(Cl)cc1 [BC18547] | > 10 |
| CC(C)Sc1oc(-c2ccc(F)cc2)nc1S(=O)(=O)c1ccccc1 [BC18548] | 1 to 10 |
| CSc1oc(-c2ccc(F)cc2)nc1S(=O)(=O)c1ccc(C)cc1 [BC18549] | > 10 |
| CSc1oc(-c2ccc(F)cc2)nc1S(=O)(=O)c1ccc(F)cc1 [BC18550] | > 10 |
| NC(=O)CSc1oc(-c2ccc(F)cc2)nc1S(=O)(=O)c1ccc(Cl)cc1 [BC18551] | > 10 |
| CSc1oc(-c2ccc(F)cc2)nc1S(=O)(=O)c1ccc(Br)cc1 [BC18552] | > 10 |
| CCC(C)S(=O)(=O)c1oc(-c2ccc(F)cc2)nc1S(=O)(=O)c1ccccc1 (stereo not drawn) [BC18553] | < 0.1 |
| CC(C)S(=O)(=O)c1oc(-c2ccc(F)cc2)nc1S(=O)(=O)c1ccc(F)cc1 [BC18554] | < 0.1 |
| CC(C)CS(=O)(=O)c1oc(-c2ccc(F)cc2)nc1S(=O)(=O)c1ccc(Cl)cc1 [BC18555] | < 0.1 |
| CCSc1oc(-c2ccccc2)nc1S(=O)(=O)c1ccc(F)cc1 [BC18556] | 1 to 10 |
| CCCCSc1oc(-c2ccccc2)nc1S(=O)(=O)c1ccc(Cl)cc1 [BC18557] | 1 to 10 |
| CCCSc1oc(-c2ccc(C)cc2)nc1S(=O)(=O)c1ccc(Cl)cc1 [BC18558] | > 10 |
| CCCCSc1oc(-c2ccc(F)cc2)nc1S(=O)(=O)c1ccccc1 [BC18559] | 1 to 10 |
| CCSc1oc(-c2ccc(F)cc2)nc1S(=O)(=O)c1ccc(C)cc1 [BC18560] | 1 to 10 |
| CCSc1oc(-c2ccc(F)cc2)nc1S(=O)(=O)c1ccc(F)cc1 [BC18561] | 1 to 10 |
| CSc1oc(-c2ccc(F)cc2)nc1S(=O)(=O)c1ccc(Cl)cc1 [BC18562] | > 10 |

| Structure (SMILES) | IC50 [µM] |
| --- | --- |
| CCSc1oc(-c2ccc(F)cc2)nc1S(=O)(=O)c1ccc(Br)cc1 [BC18563] | > 10 |
| O=S(=O)(Cc1ccccc1F)c1oc(-c2ccc(F)cc2)nc1S(=O)(=O)c1ccccc1 [BC18564] | < 0.1 |
| CCCCS(=O)(=O)c1oc(-c2ccc(F)cc2)nc1S(=O)(=O)c1ccc(F)cc1 [BC18565] | < 0.1 |
| CS(=O)(=O)c1oc(-c2ccc(F)cc2)nc1S(=O)(=O)c1ccc(Br)cc1 [BC18566] | < 0.1 |
| CCCSc1oc(-c2ccccc2)nc1S(=O)(=O)c1ccc(F)cc1 [BC18567] | > 10 |
| CCC(C)Sc1oc(-c2ccccc2)nc1S(=O)(=O)c1ccc(Cl)cc1 (stereo not drawn) [BC18568] | 1 to 10 |
| Cc1ccc(-c2nc(S(=O)(=O)c3ccc(Cl)cc3)c(SC(C)C)o2)cc1 [BC18569] | 1 to 10 |
| CCC(C)Sc1oc(-c2ccc(F)cc2)nc1S(=O)(=O)c1ccccc1 (stereo not drawn) [BC18570] | 1 to 10 |
| CCCSc1oc(-c2ccc(F)cc2)nc1S(=O)(=O)c1ccc(C)cc1 [BC18571] | 1 to 10 |
| CCCSc1oc(-c2ccc(F)cc2)nc1S(=O)(=O)c1ccc(F)cc1 [BC18572] | > 10 |
| CCSc1oc(-c2ccc(F)cc2)nc1S(=O)(=O)c1ccc(Cl)cc1 [BC18573] | 1 to 10 |
| CCCSc1oc(-c2ccc(F)cc2)nc1S(=O)(=O)c1ccc(Br)cc1 [BC18574] | > 10 |
| CC(C)CS(=O)(=O)c1oc(-c2ccc(F)cc2)nc1S(=O)(=O)c1ccccc1 [BC18575] | < 0.1 |
| CCC(C)S(=O)(=O)c1oc(-c2ccc(F)cc2)nc1S(=O)(=O)c1ccc(F)cc1 (stereo not drawn) [BC18576] | < 0.1 |
| CCS(=O)(=O)c1oc(-c2ccc(F)cc2)nc1S(=O)(=O)c1ccc(Br)cc1 [BC18577] | < 0.1 |
| CC(C)CSc1oc(-c2ccccc2)nc1S(=O)(=O)c1ccc(F)cc1 [BC18578] | 1 to 10 |
| CC(C)CSc1oc(-c2ccccc2)nc1S(=O)(=O)c1ccc(Cl)cc1 [BC18579] | 1 to 10 |
| Cc1ccc(-c2nc(S(=O)(=O)c3ccc(Cl)cc3)c(SCC(C)C)o2)cc1 [BC18580] | > 10 |
| O=S(=O)(c1ccccc1)c1nc(-c2ccc(F)cc2)oc1SCc1ccc(F)cc1 [BC18581] | 1 to 10 |

Results, then the compound that gave them:

| IC50 [µM] | Structure (SMILES) |
| --- | --- |
| 1 to 10 | Cc1ccc(S(=O)(=O)c2nc(-c3ccc(F)cc3)oc2SC(C)C)cc1 [BC18582] |
| 1 to 10 | CC(C)Sc1oc(-c2ccc(F)cc2)nc1S(=O)(=O)c1ccc(F)cc1 [BC18583] |
| > 10 | CCCSc1oc(-c2ccc(F)cc2)nc1S(=O)(=O)c1ccc(Cl)cc1 [BC18584] |
| 1 to 10 | CC(C)Sc1oc(-c2ccc(F)cc2)nc1S(=O)(=O)c1ccc(Br)cc1 [BC18585] |
| < 0.1 | Cc1ccc(S(=O)(=O)c2nc(-c3ccc(F)cc3)oc2S(=O)(=O)C(C)C)cc1 [BC18586] |
| < 0.1 | CC(C)CS(=O)(=O)c1oc(-c2ccc(F)cc2)nc1S(=O)(=O)c1ccc(F)cc1 [BC18587] |
| < 0.1 | CCCS(=O)(=O)c1oc(-c2ccc(F)cc2)nc1S(=O)(=O)c1ccc(Br)cc1 [BC18588] |

same assay, conditions: THP1-NF-κB-LUC cells; compounds 2 hours before LPS (10 ng/mL) for 18 hours; secreted luciferase; read-out: IC50 (NF-κB assay)

| IC50 [µM] | Structure (SMILES) |
| --- | --- |
| > 10 | Cc1cc2c(cc1S(=O)(=O)Nc1ccc(CCC(=O)O)cc1)OCC(=O)N2 [BC181300] |
| > 10 | COc1cc(NS(=O)(=O)c2cc3c(cc2C)NC(=O)CO3)cc(OC)c1 [BC181301] |
| < 0.1 | CCOc1ccc(NS(=O)(=O)c2cc3c(cc2C)NC(=O)CO3)cc1 [BC181302] |
| < 0.1 | CC(=O)c1cccc(NS(=O)(=O)c2cc3c(cc2C)NC(=O)CO3)c1 [BC181303] |
| > 10 | CCCCN(c1ccccc1)S(=O)(=O)c1cc2c(cc1C)NC(=O)CO2 [BC181304] |
| < 0.1 | Cc1ccc(NS(=O)(=O)c2cc3c(cc2C)NC(=O)CO3)cc1Cl [BC181305] |
| 1 to 10 | CC(=O)N1CCOc2cc(S(=O)(=O)Nc3ccc(Br)c(C)c3)c(C)cc21 [BC181306] |
| > 10 | COc1cccc(NS(=O)(=O)c2cc3c(cc2C)N(C)CCO3)c1 [BC181308] |
| > 10 | Cc1ccc(NS(=O)(=O)c2cc3c(cc2C)N(C)CCO3)cc1F [BC181309] |
| < 0.1 | Cc1cc2c(cc1S(=O)(=O)Nc1ccccc1)OCC(=O)N2 [BC181310] |
| < 0.1 | Cc1cc2c(cc1S(=O)(=O)Nc1cc(F)ccc1F)OCC(=O)N2 [BC181311] |
| 1 to 10 | Cc1cc2c(cc1S(=O)(=O)Nc1cccc(C)c1C)OCC(=O)N2 [BC181312] |
| > 10 | Cc1cc2c(cc1S(=O)(=O)Nc1c(C)cccc1C(C)C)OCC(=O)N2 [BC181313] |
| < 0.1 | CSc1cccc(NS(=O)(=O)c2cc3c(cc2C)NC(=O)CO3)c1 [BC181314] |
| < 0.1 | Cc1cc2c(cc1S(=O)(=O)Nc1ccc(CC(F)(F)F)cc1)OCC(=O)N2 [BC181315] |
| > 10 | Cc1cc2c(cc1S(=O)(=O)N(C)c1ccc(Br)cc1)OCC(=O)N2 [BC181316] |
| > 10 | COc1cccc(NS(=O)(=O)c2cc3c(cc2C)N(C(C)=O)CCO3)c1 [BC181317] |
| > 10 | CC(=O)N1CCOc2cc(S(=O)(=O)Nc3c(C)cccc3C)c(C)cc21 [BC181318] |
| > 10 | COc1ccc(NS(=O)(=O)c2cc3c(cc2C)N(C)CCO3)cc1 [BC181319] |
| > 10 | Cc1cccc(NS(=O)(=O)c2cc3c(cc2C)N(C)CCO3)c1 [BC181320] |
| < 0.1 | Cc1cc2c(cc1S(=O)(=O)Nc1cccc(Br)c1)OCC(=O)N2 [BC181321] |
| > 10 | COc1ccc(NS(=O)(=O)c2cc3c(cc2C)NC(=O)CO3)cc1OC [BC181322] |

| IC50 [µM] | Structure (SMILES) |
| --- | --- |
| > 10 | Cc1cc2c(cc1S(=O)(=O)Nc1c(C)cccc1C)OCC(=O)N2 [BC181323] |
| > 10 | COc1cc(NS(=O)(=O)c2cc3c(cc2C)NC(=O)CO3)cc(OC)c1OC [BC181324] |
| > 10 | CCc1cccc(CC)c1NS(=O)(=O)c1cc2c(cc1C)NC(=O)CO2 [BC181325] |
| > 10 | COc1ccc(C)cc1NS(=O)(=O)c1cc2c(cc1C)NC(=O)CO2 [BC181326] |
| > 10 | COc1ccc(N(C)S(=O)(=O)c2cc3c(cc2C)NC(=O)CO3)c(OC)c1 [BC181327] |
| > 10 | COc1ccc(NS(=O)(=O)c2cc3c(cc2C)N(C(C)=O)CCO3)cc1 [BC181328] |
| 1 to 10 | CCc1ccc(NS(=O)(=O)c2cc3c(cc2C)N(C(C)=O)CCO3)cc1 [BC181329] |
| 1 to 10 | Cc1cc2c(cc1S(=O)(=O)Nc1ccc(Cl)cc1)OCCN2C [BC181330] |
| < 0.1 | Cc1cc2c(cc1S(=O)(=O)Nc1ccc(F)c(Cl)c1)OCC(=O)N2 [BC181331] |
| > 10 | CCNS(=O)(=O)c1cc2c(cc1C)NC(=O)CO2 [BC181332] |
| 1 to 10 | COc1ccc(NS(=O)(=O)c2cc3c(cc2C)NC(=O)CO3)cc1 [BC181333] |
| 1 to 10 | CCOC(=O)c1cccc(NS(=O)(=O)c2cc3c(cc2C)NC(=O)CO3)c1 [BC181334] |
| > 10 | Cc1ccc(C)c(NS(=O)(=O)c2cc3c(cc2C)NC(=O)CO3)c1 [BC181335] |
| < 0.1 | Cc1cc2c(cc1S(=O)(=O)Nc1ccc(C(C)C)cc1)OCC(=O)N2 [BC181336] |
| > 10 | CCOc1ccc(OCC)c(NS(=O)(=O)c2cc3c(cc2C)NC(=O)CO3)c1 [BC181337] |
| 1 to 10 | CCCN(c1ccccc1OC)S(=O)(=O)c1cc2c(cc1C)NC(=O)CO2 [BC181338] |
| > 10 | CC(=O)N1CCOc2cc(S(=O)(=O)Nc3ccccc3Br)c(C)cc21 [BC181339] |
| > 10 | CCOc1ccc(NS(=O)(=O)c2cc3c(cc2C)N(C(C)=O)CCO3)cc1 [BC181340] |
| 1 to 10 | Cc1cc2c(cc1S(=O)(=O)Nc1ccc(F)cc1F)OCCN2C [BC181341] |
| 0.1 to 1 | Cc1cc2c(cc1S(=O)(=O)Nc1ccc3c(c1)OCCO3)OCC(=O)N2 [BC181342] |
| < 0.1 | Cc1ccc(NS(=O)(=O)c2cc3c(cc2Cl)NC(=O)CO3)cc1F [BC181343] |

same assay, conditions: read-out: IC50 (NF-κB assay)

| Structure (SMILES) | IC50 [µM] |
| --- | --- |
| COc1cc(NS(=O)(=O)c2cc3c(cc2C)N(C(C)=O)CCO3)cc(OC)c1 [BC181307] | > 10 |

Reference: patent publication US12606528B2, “Methods and materials for inhibiting NF-kB activity” (University of Pittsburgh - Of the Commonwealth System of …, priority 2019, dated 2026)
